Data reported in ChEMBL document CHEMBL1157539, “Thousands of chemical starting points for antimalarial lead identification” (Nature, 2010).

Tested on: Plasmodium falciparum
Test: GSK_TCMDC: Inhibition of Plasmodium falciparum 3D7 in whole erythrocytes, using parasite LDH activity as an index of growth.
Assay type: functional, organism-based
Settings: Plasmodium falciparum, 3D7

| SMILES | XC50 |
| --- | --- |
| OC1CCC(Nc2ccc3ncc(-c4ccc(Cl)cc4)n3n2)CC1 (stereo unspecified) | 824 nM |
| Fc1ccc2[nH]c(-c3cccc(-c4cccc(CN5CCN(c6cnccn6)CC5)c4)c3)nc2c1 | 1060 nM |
| COc1ccccc1N1CCN(Cc2cc(C(C)C)c(C)cc2O)CC1 | 572 nM |
| CC[C@H](N/C(=N\c1ccc(-c2ccccc2)cc1)Nc1ccc(C#N)cc1O)c1ccccc1 | 759 nM |
| COc1ccc2nccc([C@@H](O)CN3CCC(NCc4ccc5scnc5c4)CC3)c2c1 | 399 nM |
| c1cn(-c2ccc(CNc3nccc(Nc4ccc(OCCN5CCOCC5)cc4)n3)cc2)cn1 | 878 nM |
| CC(C)CNC(=O)c1cncc(-c2cccc(CNC3Cc4ccccc4C3)c2)c1 | 786 nM |
| Nc1nc(N)c2c(Oc3ccc(Cl)c(Cl)c3)cccc2n1 | 871 nM |
| O=C(Nc1ccc(Cl)c(Cl)c1)N1CCC(CNCc2cccc([N+](=O)[O-])c2)CC1 | 979 nM |
| COc1cc(C(=O)NCCCN2CCN(c3cc(Cl)ccc3OC)CC2)ccc1-c1nc2cc(Cl)c(Cl)cc2[nH]1 | 731 nM |
| O=C(NCCCCCN1CCC(c2c[nH]c3ccccc23)CC1)c1ccc(-c2ccccc2)nc1 | 1020 nM |
| COc1ccc(CNCC2CCC(CNCCc3ccccc3)CC2)cc1Cl (stereo unspecified) | 789 nM |
| O=C(Nc1cccc(OC2CCN(Cc3ccccc3)CC2)c1)c1ccc([N+](=O)[O-])cc1 | 661 nM |
| O=C(NC1CCC(N2CCN(c3cccc(C(F)(F)F)c3)CC2)CC1)c1cc2ccccc2[nH]1 (stereo unspecified) | 723 nM |
| CCN(CC(C)O)C(=O)c1ccc(-c2cccc(-c3nc4cccc(C)c4[nH]3)c2)cc1 (stereo unspecified) | 639 nM |
| Cn1nc(C(F)(F)F)c(-c2ccc(F)cc2)c1NC(=O)Nc1ccc(F)cc1 | 754 nM |
| Cc1cc(N[C@@H](Cc2ccccc2)C(=O)NCc2cccs2)nc(NCCOc2ccccc2)n1 | 1480 nM |
| Cc1cccc2nc(-c3cccc(-c4cccc(NC(=O)Cc5ccc[n+]([O-])c5)c4)c3)[nH]c12 | 635 nM |
| COc1ccc2c(=NN=Cc3c(OC)ccc4ccccc34)cc(C)[nH]c2c1 | 777 nM |
| CCOC(=O)NC1=NC(=N)N(OCCCOc2cc(Cl)c(Cl)cc2Cl)C(C)(C)N1 | 3.2 nM |
| CCCCc1cc(NC2CCN(C)CC2)nc(Nc2ccccc2)n1 | 658 nM |
| COc1ccc(NC(=O)Nc2cccc(-c3ccc(-c4nc5cc(C(F)(F)F)ccc5[nH]4)cc3)c2)cc1 | 452 nM |
| CC(=O)c1cccc2c(NC(=O)Nc3ccc4nccc(N5CCN(C)CC5)c4c3)cccc12 | 400 nM |
| CC1(C)N=C(N)N=C(N)N1OCCCOc1cc(Cl)c(Cl)cc1Cl | 3.2 nM |

| SMILES | XC50 |
| --- | --- |
| COc1cc(NCCCNCc2cn(Cc3cc(Br)cc(Br)c3)c3ccccc23)nc2ccccc12 | 185 nM |
| NCc1ccc(-c2ccccc2CN(C(=O)Nc2ccccc2)C2CCN(Cc3ccccc3)CC2)cc1 | 880 nM |
| O=C(Nc1cccc(C(F)(F)F)c1)N1CCOC(CCN2CCC3(CCc4ccccc43)CC2)(c2ccc(Cl)c(Cl)c2)C1 (stereo unspecified) | 736 nM |
| COC(=O)c1cccc(CNCc2cccc(-c3cccc(-c4nc5cccc(C)c5[nH]4)c3)c2)c1 | 186 nM |
| CCOC(=O)C1=C(C)N=c2sc(=Cc3cc(Cl)ccc3O)c(=O)n2C1c1cc(OC)c(OC)cc1Br (stereo unspecified) | 993 nM |
| O=C(Nc1ccc(-c2nc3ccccc3[nH]2)cc1)c1ccc(N2CCCC2)c([N+](=O)[O-])c1 | 678 nM |
| CCOC(=O)c1ccc(COc2ccc(C)nc2)cc1 | 542 nM |
| NC(=O)c1ccsc1NC(=O)CNC(c1ccccc1)c1ccc(Cl)cc1 (stereo unspecified) | 262 nM |
| CN1CCCC1CCNCc1cccc(-c2cnc(N(C)C3CCCCC3)nc2)c1 (stereo unspecified) | 853 nM |
| COc1ccccc1C1CCN(C2CCC(NC(=O)c3cc4cc(C(C)C)ccc4[nH]3)CC2)CC1 (stereo unspecified) | 850 nM |
| Cc1onc(-c2c(Cl)cccc2Cl)c1C(=O)NC1=NC(C)(C)ON1c1ccccc1 | 1070 nM |
| O=C1Nc2ccccc2/C1=N/NC(=S)N1CCOCC1 | 910 nM |
| Cn1nc(C(=O)N2CCC(c3[nH]ncc3Cc3ccccc3)CC2)c2ccccc2c1=O | 304 nM |
| COc1ccc2c(NCCc3ccccc3)cc(-c3ccccc3)nc2c1 | 987 nM |
| COc1ccc2ncc(F)c(NC(=O)C3CCC(NCc4cc5c(F)cccc5[nH]4)CC3)c2n1 (stereo unspecified) | 1090 nM |
| c1cc(-c2ccc(CNCCCn3ccnc3)cc2)cc(-c2nc3ccccc3[nH]2)c1 | 113 nM |
| N=C(NCc1ccccc1)Nc1nc(-c2ccc(OCCCn3ccnc3)cc2)cs1 | 253 nM |
| COc1cc(NC2=NS(=O)(=O)c3cc(Cl)ccc3N2C)cc(OC)c1OC | 420 nM |
| Cc1ccc(NC(=O)c2cccc(CN3CCCN(Cc4cccc(O)c4)CC3)c2)cc1F | 705 nM |
| O=C(N1CCN(c2cccc(C(F)(F)F)c2)CC1)C(Cl)(Cl)Cl | 887 nM |
| O=C(Nc1ccc(OC2CCN(Cc3ccco3)C2)c(Cl)c1)c1ccc2ncccc2c1 (stereo unspecified) | 1080 nM |
| CCCCCC(=O)N1CCOC(CCN2CCc3c(c4ccccc4n3C)C2)(c2ccc(Cl)c(Cl)c2)C1 (stereo unspecified) | 982 nM |
| O=C(/C=C/c1ccc(Cl)c(Cl)c1)NCCCCCN1CCC(C(=O)Nc2ccc(Cl)cc2)CC1 | 776 nM |
| O=C(/C=C/c1ccc(Cl)c(Cl)c1)NCCCCN1CCCN(C(=O)Nc2ccc(F)c(Cl)c2)CC1 | 1510 nM |

| SMILES | XC50 |
| --- | --- |
| CN1N=C2c3ccccc3CCC2C1c1ccc(C#N)cc1 (stereo unspecified) | 655 nM |
| O=C(c1cccc(COc2ccc3c(c2)CCN(C2CCCC2)CC3)c1)N1CCN(c2ccncc2)CC1 | 740 nM |
| CCN(CC)CCN(Cc1ccc(-c2ccc(C(F)(F)F)cc2)nc1)C(=O)Cn1c(SCc2ccc(F)cc2)nc(=O)c2sccc21 | 840 nM |
| CCN(CC1CCN(CC2(O)CCOCC2)CC1)c1cc(C)nc(Nc2ccc(Cl)cc2)n1 | 406 nM |
| CCOC(=O)c1sc(C(C)Nc2ccccc2)nc1-c1ccccc1 (stereo unspecified) | 333 nM |
| CCn1ccc2c(N3CCCC3=O)cc(C(=O)N[C@@H](Cc3ccccc3)[C@H](O)CNCc3cccc(OC)c3)cc21 | 588 nM |
| O=C(Nc1cccc(-c2cccc(CN3CCCC3)c2)c1)c1cccc(Cl)c1 | 1180 nM |
| O=C(Nc1cccnc1)c1ccc(-c2cc3ccncc3cc2OC2CCNCC2)s1 | 884 nM |
| CN(C)CCOc1ccc2c(c1)CN(C)CC2c1ccccc1 (stereo unspecified) | 1110 nM |
| O=C(Nc1cccc(C(F)(F)F)c1)c1cc([N+](=O)[O-])cc2cn[nH]c12 | 995 nM |
| COc1ccc(Cl)cc1N1CCN(CCCNC(=O)c2ccc(-c3nc4cc(Cl)c(C)cc4[nH]3)c(F)c2)CC1 | 185 nM |
| COc1ccc2nccc([C@@H](O)CN3CCC(NCc4cc5ccc(C#N)cc5[nH]4)CC3)c2c1 | 95 nM |
| O=C1c2ccccc2CN1CCCN1CCC(Oc2ccc(F)cc2)CC1 | 1210 nM |
| CC1(C)N=C(N)N=C(NOCCCCCCONC2=NC(N)=NC(C)(C)N2)N1 | 33.3 nM |
| Cc1cc(N2CCCC2)nc(Nc2ccc(NC(=O)c3ccccc3F)cc2)n1 | 922 nM |
| Cc1cccc2nc(-c3ccc(-c4ccc(NC(=O)Nc5ccsc5)cc4)cc3)[nH]c12 | 171 nM |
| CC(C)(C)C(Cn1ccnc1)NCc1c[nH]nc1-c1ccc(-c2ccccc2)cc1 (stereo unspecified) | 1060 nM |
| Cc1cc(=NN=Cc2ccc(Cl)cc2)c2ccc(F)cc2[nH]1 | 757 nM |
| Cc1cc(NC(=O)Nc2ccc3ncccc3c2)c2ccccc2n1 | 956 nM |
| C=CCc1cc(C2CCN(CCCCNC(=O)c3ccc(-c4ccc(C#N)cc4)cc3)CC2)c(OCC(N)=O)c2c1CCCC2 | 799 nM |
| O=[N+]([O-])c1ccc(/C=N/Nc2cc(-c3ccccc3)nc3ccccc23)o1 | 863 nM |
| Cc1[nH]c2ccccc2c1C1=CCN(CCCCCC23CCCc4cccc(c42)NC3=O)CC1 (stereo unspecified) | 253 nM |
| O=C(/C=C/c1ccc(Cl)c(Cl)c1)NCCCCCN1CCC(CCNC(=O)Cc2ccc(Cl)cc2)CC1 | 1160 nM |
| CN(CCS(C)(=O)=O)Cc1ccc(-c2ccc3ncnc(Nc4ccc(OCc5cccc(F)c5)c(Cl)c4)c3c2)o1 | 681 nM |

| SMILES | XC50 |
| --- | --- |
| COc1cc(C)nc2ccc(NC(=O)c3ccc(C(=O)Nc4ccc5nc(C)cc(OC)c5c4)cc3)cc12 | 63.3 nM |
| Cc1cc2c(cc1C(F)(F)F)N(C(=O)Nc1ccc(C(=O)NC3CCN(Cc4ccccc4)C3)cc1)CC2 (stereo unspecified) | 776 nM |
| O=C(Cc1ccccc1)NC(CCN1CCC(O)(c2cccc(C(F)(F)F)c2)CC1)c1ccc(Cl)c(Cl)c1 (stereo unspecified) | 855 nM |
| O=C(c1ccc(-c2ccc(-c3nc4cc(F)ccc4[nH]3)cc2)cc1)N1CCCCC1CN1CCC(O)C1 (stereo unspecified) | 368 nM |
| Cc1c(Cn2ncc(N3CCC(N)CC3)c(Cl)c2=O)cccc1NC(=O)Nc1ccc(-c2ccccc2)cc1 | 697 nM |
| O=C(Nc1ccc(Cn2ncc(N3CCNCC3)c(Cl)c2=O)cc1)Nc1ccc(-c2ccccc2)cc1 | 591 nM |
| CN1CCN(CC(=O)Nc2cccc(-c3ccc(-c4nc5cc(F)ccc5[nH]4)s3)c2)CC1 | 679 nM |
| CCNc1cc(C(=O)N[C@@H](Cc2ccccc2)[C@H](O)CNC23CCC(CC2)CC3)cc(N2CCCCS2(=O)=O)c1 | 63.2 nM |
| Cn1c(Nc2cc(C(C)(C)C)on2)nc2cc(Nc3ccnc(Nc4cccc(S(=O)(=O)N5CCOCC5)c4)n3)ccc21 | 533 nM |
| COc1ccc(C(=O)Nc2nonc2-c2ccc(OC)c(OC)c2)cc1Cl | 675 nM |
| CC(OC(=O)c1ccc(C(=O)NCC2CC2)cc1)C(C)(C)C (stereo unspecified) | 791 nM |
| O=C(Nc1cccc(-c2nn3ncccc3c2-c2ccnc(Nc3ccccc3)n2)c1)c1c(F)cccc1F | 726 nM |
| COc1ccc(NC(=O)/C=C/c2ccccc2Cl)cc1OCCN1CCC(N2CCN(C)CC2)CC1 | 487 nM |
| Cc1cc(Nc2cc(Cl)cc(Cl)c2)nc(N)n1 | 1140 nM |
| COc1ccc(NC2=C(c3ccccc3)C(=O)c3ccccc32)cn1 | 705 nM |
| CCOc1ccc(NC(=O)c2ccc(NCCCN3CC(C)CC(C)C3)c([N+](=O)[O-])c2)cc1 (stereo unspecified) | 705 nM |
| CCCCN1CCN(c2cc(NS(=O)(=O)c3cccc(C(=O)Nc4ccc(C(F)(F)F)cc4)c3)ccc2OC)CC1 | 685 nM |
| CN(C)c1cccc2c1nc(-c1ccc3c(c1)CCO3)n2CCNCc1ccccc1 | 734 nM |
| Cc1ccc(Nc2nc(N/N=C/c3ccccc3[N+](=O)[O-])nc(Nc3ccc([N+](=O)[O-])cc3)n2)cc1C | 692 nM |
| Cc1cnc2ccc(NS(=O)(=O)c3ccc4c(Cl)cccc4c3)cc2c1N1CCNCC1 | 751 nM |
| COc1ccc(S(=O)(=O)NCC2CCCN(CCCCCNC(=O)/C=C/c3ccc(Cl)c(Cl)c3)C2)cc1 (stereo unspecified) | 1060 nM |
| O=C1C(c2ccccc2)=C(Nc2ccc([N+](=O)[O-])cc2)c2ccccc21 | 871 nM |
| CC(C)CN1C(=O)c2ccccc2C(C(=O)Nc2cccc(C#N)c2)C1c1cccs1 (stereo unspecified) | 159 nM |
| Cc1ccccc1C1CCN(C2CCC(NC(=O)c3cc4cc(C(C)C)ccc4[nH]3)CC2)CC1 (stereo unspecified) | 695 nM |
